Assay results as given in ChEMBL document CHEMBL1147742, “Design and synthesis of photoaffinity-labeling ligands of the L-prolyl-L-leucylglycinamide binding site involved in the allosteric modulation of the dopamine receptor” (J Med Chem, 2006).
Calls of active or inactive are those of the source. The calls are words filed in the database; no cut-off is given here. Where a SMILES comes first, the peptide text is derived from it.

These molecules were tested against D(2) dopamine receptor (Bos taurus) (UniProt P20288) (assay: Stimulation of [3H]NPA binding to dopamine D2 receptor from bovine striatal membranes in presence of photoaffinity-labeling agents). Details: not given.
Chain of D(2) dopamine receptor (Bos taurus) (P20288 whole entry): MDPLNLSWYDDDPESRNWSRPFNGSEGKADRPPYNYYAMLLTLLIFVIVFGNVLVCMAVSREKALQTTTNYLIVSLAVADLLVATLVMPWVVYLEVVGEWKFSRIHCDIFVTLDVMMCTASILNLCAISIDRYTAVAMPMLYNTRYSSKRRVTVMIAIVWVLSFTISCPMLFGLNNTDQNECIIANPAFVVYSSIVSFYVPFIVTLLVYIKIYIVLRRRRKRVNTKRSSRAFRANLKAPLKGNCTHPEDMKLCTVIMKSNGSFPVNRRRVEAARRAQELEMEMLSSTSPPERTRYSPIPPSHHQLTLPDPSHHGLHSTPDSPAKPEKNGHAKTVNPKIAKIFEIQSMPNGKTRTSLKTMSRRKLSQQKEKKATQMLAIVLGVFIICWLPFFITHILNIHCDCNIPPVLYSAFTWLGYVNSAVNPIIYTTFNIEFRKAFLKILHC
`NC(=O)CN1CC[C@@H](NC(=O)[C@@H]2CCCN2)C1=O` was tested, and the Activity was “inactive”.
With `CC(C)C[C@H](NC(=O)[C@@H]1CCCN1)C(=O)NCC(N)=O` (H-Pro-Leu-Gly-NH2) the Activity was “inactive”.

These molecules were tested against D(2) dopamine receptor (Bos taurus) (UniProt P20288) (assay: Stimulation of [3H]NPA binding to dopamine D2 receptor in bovine striatal membranes). Details: Striatum, Membrane.
Assay type: cell membranes
In the case of `[N-]=[N+]=Nc1ccc(C(=O)N[C@@H]2CN[C@H](C(=O)N[C@@H]3CCN(CC(N)=O)C3=O)C2)c(O)c1`, the Activity is reported as “Active”.
For `[N-]=[N+]=Nc1ccc(C(=O)NCCNC(=O)CN2CC[C@@H](NC(=O)[C@@H]3CCCN3)C2=O)cc1`, the Activity was “Active”.
`[N-]=[N+]=Nc1ccc(C(=O)N[C@@H]2CN[C@H](C(=O)N[C@@H]3CCN(CC(N)=O)C3=O)C2)cc1` was tested, and the Activity was “Active”.
In the case of `[N-]=[N+]=Nc1cc(O)c(C(=O)NCCNC(=O)CN2CC[C@@H](NC(=O)[C@@H]3CCCN3)C2=O)cc1I`, the Activity is reported as “Active”.
`[N-]=[N+]=Nc1ccc(C(=O)N[C@H]2CN[C@H](C(=O)N[C@@H]3CCN(CC(N)=O)C3=O)C2)c(O)c1` was tested, and the Activity was “Active”.
Molecule `NC(=O)CN1CC[C@@H](NC(=O)[C@@H]2CCCN2)C1=O` has an Activity of 51.1%.
For `[N-]=[N+]=Nc1cc(O)c(C(=O)N[C@@H]2CN[C@H](C(=O)N[C@@H]3CCN(CC(N)=O)C3=O)C2)cc1I`, the Activity was “Active”.
With `[N-]=[N+]=Nc1ccc(C(=O)NCCNC(=O)CN2CC[C@@H](NC(=O)[C@@H]3CCCN3)C2=O)c(O)c1` the Activity was “Active”.
For `[N-]=[N+]=Nc1ccc(C(=O)N[C@H]2CN[C@H](C(=O)N[C@@H]3CCN(CC(N)=O)C3=O)C2)cc1`, the Activity was “Active”.
`CC(C)C[C@H](NC(=O)[C@@H]1CCCN1)C(=O)NCC(N)=O` (H-Pro-Leu-Gly-NH2) gave an Activity of 24.5%.
